In patent publication US8486960B2, “Formulations and methods for vascular permeability-related diseases or conditions” (Santen Pharmaceutical Co., Ltd., priority 2006, dated 2013):

Assay: Rapamycin levels in hamster cheek tissue homogenate by LC/MS
Format: in vivo, golden Syrian hamsters
Conditions: for Rapamycin assayed concentration, Average: hamster cheek pouch, all samples
Excerpt: Upon sacrifice of the animals, samples of both of the Hamster cheeks were obtained and frozen at −80 degrees Celsius. The samples were labeled as to the amount of intraperitoneal dose received, and whether they were right (studied with chamber) or left.

average tissue level of rapamycin in the hamster cheek pouch (0.1 mg/kg treatment group): 7.37 ng/g
average tissue level of rapamycin in the hamster cheek pouch (0.5 mg/kg treatment group): 11.01 ng/g
average tissue level of rapamycin in the hamster cheek pouch (2.0 mg/kg treatment group): 40.83 ng/g
average tissue level of rapamycin in the hamster cheek pouch (10 mg/kg treatment group): 55.15 ng/g
Rapamycin assayed concentration, Average (dosing 0.1 mg/kg ip): 7.37 ng/g or pg/mg
Rapamycin assayed concentration, Average (dosing 0.5 mg/kg ip): 11.01 ng/g or pg/mg
Rapamycin assayed concentration, Average (dosing 2 mg/kg ip): 40.83 ng/g or pg/mg
Rapamycin assayed concentration, Average (dosing 10 mg/kg ip): 55.15 ng/g or pg/mg
Compound: CO[C@H]1C[C@@H]2CC[C@@H](C)[C@@](O)(O2)C(=O)C(=O)N2CCCC[C@H]2C(=O)O[C@H]([C@H](C)C[C@@H]2CC[C@@H](O)[C@H](OC)C2)CC(=O)[C@H](C)/C=C(\C)[C@@H](O)[C@@H](OC)C(=O)[C@H](C)C[C@H](C)/C=C/C=C/C=C/1C [rapamycin]
